Assay results published in publication PMC12198407, “Preclinical and first-in-human of purinostat mesylate, a novel selective HDAC I/IIb inhibitor, in relapsed/refractory multiple myeloma and lymphoma” (Signal Transduction and Targeted Therapy, 2025).
Where two headings read alike, the source gives them in different places.

What was measured:
[1] = system: CYP3A4; assay: CYP induction, cryopreserved human liver cells; format: in vitro ADME; details: 0.0500, 0.500, 5.00 µM; three donors
[2] = Chronic toxicity test, 4 weeks; format: in vivo, rats
Method: In this study, the low, medium, and high dose groups were set at 3, 10, and 30 mg/kg, respectively. The blank formulation was set at low and high doses of 45 and 450 mg/kg, corresponding to the doses of hydroxypropyl beta-cyclodextrin in the low and high dose groups of injectable Purinostat Mesylate. Dosing occurred once every two days, three times a week, for a total of four weeks, with some animals undergoing a four-week recovery period after the treatment ended. The main results indicated no mortality. In the high-dose group, symptoms included sparse fur, reduced activity, and scabbing at the injection site. […] The primary toxic target organs or systems included the immune system (spleen, thymus, various lymph nodes), submandibular gland, bone marrow, testis, and epididymis.

[3] = system: OPM2; assay: Cell viability CCK8; format: cell-based; details: Homo sapiens, OPM-2; OPM2, 72 h; no unit in table; read-out: Antiproliferative activity IC50
Method: (§1) PM, panobinostat, Pom and DXM were dissolved in DMSO and stored at -20°C freezer. Cells were seeded at a density of 1.0-3.0 × 10^4 cells/well/100 μL in 96-well plates. After overnight incubation, cells were treated with the drug-containing culture medium for 24, 48, or 72 hours, and cell viability was measured using CCK8 (Oriscience, Chengdu, China) at the indicated time points with Biotek Cytation 3 at a wavelength of 450 nm. The IC50 values were calculated using GraphPad Prism 9.4.1, and Calcusyn 2.0 software was employed to calculate the CI values.

[4] = system: r/r DLBCL PDX; assay: r/r DLBCL PDX mouse model; format: in vivo, mice; details: PM 10 mg/kg; Pola-BR per Table S9
Method: All animal studies were performed in accordance with the guidelines approved by the Institutional Animal Care and Use Committee of Sichuan University, Chengdu, China. Six- to seven-week-old female NOD-SCID mice were purchased from Beijing Vital River Laboratory Animal Technology Co., Ltd. (China). Mice received subcutaneous inoculation with 0.5 × 10^7 MM1S or RPMI-8226 cells, to establish xenograft models. Heterotopic PDX models were generated as previously described.[54] When tumors reached 150–250 mm^3, mice were treated with various compounds. PM and panobinostat were administered intravenously three times a week at 5 mg/kg in combination therapy. […] Tumor volume (tumor volume (mm^3) = π/6 × length × width^2) and body weights were measured every two days. At the end, tumor tissues were weighed, and antitumor activity was evaluated by the tumor inhibition rate = (1 − tumor weight of treatment group/tumor weight of vehicle group) × 100%.

[5] = system: c-MYC/KRAS12V transformed BaF3 cells; assay: Cell viability CCK8; format: cell-based
Method: as §1
Mice were weighed every two days. All data are represented as mean ± SEM.

[6] = system: primary MM cells from relapsed patients A and B; assay: Cell apoptosis analysis, primary cells; format: cell-based, human; details: 5 nM, 48 h
Method: (§2) CD138^+, CD38^+, or CD20^+ primary cells were obtained from plasma cell leukemia patients and DLBCL patients who had relapsed after multiple drug therapies. These patient samples were sourced from West China Hospital and had been approved by the clinical ethics committee of West China Hospital of Sichuan University (Chengdu, China). The clinical information of these patients was summarized in Supplementary Table 2. The patient primary cells were cultured in 6-well plates at a density of 1×10^6 cells/mL, and treated with control, PM, panobinostat, Pom and DXM at indicated concentrations for 48 hours. CD138, CD38, and CD20 monoclonal antibodies, Annexin V-APC and 7AAD apoptosis detection kits were used following the manufacturer’s instructions. The apoptosis cells were analyzed by flow cytometry (Thermo, AttuneTMNxT).

[7] = system: diffuse large B-cell lymphoma (DLBCL) cells from patient C; assay: Cell apoptosis analysis, primary cells; format: cell-based, human; details: 5 nM, 48 h
Method: as §2

[8] = system: HUVEC; assay: Proliferation, MTT or Alamar Blue; format: cell-based; details: Homo sapiens, read-out: IC50, normal HUVEC cells
[9] = Pharmacokinetics, intravenous; format: in vivo, SD rats; details: for AUC(0-t) / half-life / Vd / clearance / C0: both sexes, SD, rat, plasma, iv; for Vd: read-out: Vdss; for clearance: read-out: plasma clearance (CL); for increase in AUC0-last for tenfold increase in dose: 1 to 10 mg/kg
Method: After a single intravenous injection of Purinostat Mesylate at doses of 1, 3, and 10 mg/kg, the average initial concentrations (C0) in male and female SD rats were 736 ± 66.5, 2880 ± 566, and 11500 ± 1790 ng/mL, respectively. […] The half-lives (T1/2) were 3.79 ± 0.511, 4.21 ± 0.248, and 6.24 ± 1.57 min, respectively. The area under the curve (AUC0-last) values were 55.3 ± 3.68, 248 ± 36.1, and 1280 ± 122 ng.h/mL, respectively. After daily intravenous injections of 3 mg/kg Purinostat Mesylate for 7 consecutive days, the average AUC0-last on day 7 for both male and female rats was 332 ± 43.6 ng.h/mL.

[10] = system: human liver cells; assay: Cytotoxicity on donor liver cells; format: cell-based
[11] = system: rabbit red blood cells; assay: In vitro hemolytic test; details: 0.204 mg/mL
Method: This experiment included a negative control group (0.9% sodium chloride injection), a positive control group (sterile water for injection), a blank formulation group of injectable Purinostat Mesylate with five dosage levels (0.1, 0.2, 0.3, 0.4, and 0.5 mL/test tube at a concentration of 3.06 mg/mL, which is the same as the concentration of the excipient in the injectable Purinostat Mesylate group), and five dosage levels of injectable Purinostat Mesylate (0.1, 0.2, 0.3, 0.4, and 0.5 mL/test tube at a concentration of 0.204 mg/mL, the maximum intended clinical concentration). A 2% red blood cell suspension was mixed with 0.9% sodium chloride injection, sterile water for injection, the blank formulation of injectable Purinostat Mesylate, and injectable Purinostat Mesylate in the specified proportions, and then placed in a constant temperature incubator at 37±0.5°C. […] Each group was measured in parallel three times.

CN(Cc1nc2c(N3CCOCC3)nc(-c3ccc(N)cc3)nc2n1C)c1ncc(C(=O)NO)cn1.CS(=O)(=O)O [PM, 2-(((2-(4-Aminophenyl)-9-methyl-6-(4-morpholinyl)-9H-purine-8-yl)methyl)methylamino)-N-hydroxy-5-pyrimidine-carboxamide Mesylate]
induction of CYP3A4 [1]: did not act as an inducer
mortality ([2]; 3, 10, 30 mg/kg): no mortality
highest no serious toxicity dose (HNSTD) ([2]; three times a week, four weeks): 30 mg/kg
IC50 [3]: 1.78 ± 0.13 nM
tumor inhibition rate [4]: 77.14%
superior antiproliferation activity compared to panobinostat [5]: ~4 fold
apoptosis ([6]; patient A): 92.9%
apoptosis ([6]; patient B): 82.0%
apoptosis [7]: 82.1%
IC50 [8]: 68.9 nM
AUC(0-t) ([9]; 1 mg/kg, read-out: AUC0-last): 55.3 ± 3.68 ng·h/mL
half-life ([9]; 1 mg/kg, read-out: T1/2): 3.79 ± 0.511 min
Vd ([9]; 1 mg/kg): 1.43 ± 0.135 L/kg
clearance ([9]; 1 mg/kg): 301 ± 20 mL/min/kg
AUC(0-t) ([9]; 3 mg/kg, 3 mg/kg daily i.v. for 7 days, read-out: AUC0-last on day 7): 332 ± 43.6 ng·h/mL
AUC(0-t) ([9]; 3 mg/kg, read-out: AUC0-last): 248 ± 36.1 ng·h/mL
half-life ([9]; 3 mg/kg, read-out: T1/2): 4.21 ± 0.248 min
Vd ([9]; 3 mg/kg): 1.13 ± 0.241 L/kg
clearance ([9]; 3 mg/kg): 205 ± 36.4 mL/min/kg
AUC(0-t) ([9]; 10 mg/kg, read-out: AUC0-last): 1280 ± 122 ng·h/mL
half-life ([9]; 10 mg/kg, read-out: T1/2): 6.24 ± 1.57 min
Vd ([9]; 10 mg/kg): 0.948 ± 0.125 L/kg
clearance ([9]; 10 mg/kg): 131 ± 12.8 mL/min/kg
C0 ([9]; 1 mg/kg single i.v.): 736 ± 66.5 ng/mL
C0 ([9]; 3 mg/kg single i.v.): 2880 ± 566 ng/mL
C0 ([9]; 10 mg/kg single i.v.): 11500 ± 1790 ng/mL
half-life ([9]; single i.v., range over doses, read-out: half-life): 3.79 to 6.24 min
increase in AUC0-last for tenfold increase in dose ([9]; female rats): 24.4 fold
increase in AUC0-last for tenfold increase in dose ([9]; male rats): 21.7 fold
PAD (Mouse): 2.5 mg/kg
MRSD from MTD, most sensitive species (beagle, dog): 3.33 mg/m²
equivalent human dose of exposure at dog HNSTD (beagle, dog): 36.88 mg/m²
cytotoxicity on donor liver cells [10]: exhibited cytotoxic effects on donor liver cells at concentrations up to 5.00 μM
in vitro hemolytic test outcome [11]: negative
